Holding throughout (type): biochemical
Assay [1] addresses wild-type Epidermal Growth Factor Receptor (EGFR) (Homo sapiens (Human), UniProt P00533). The assay can be described thus: WT-EGFR Kinase Assay (TR-FRET, 2 mM ATP). Conditions: EGFR Wildtyp 2 mM ATP IC50 [mol/l] (median), median or individual measurements. A digest of the protocol:
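GST-tagged human EGFR (R669–A1210, Sf9-expressed) preincubated 15 min at 22° C with compound in pH 7.0 Hepes/MgCl2 buffer, then reacted at 2 mM ATP with a biotinylated peptide substrate. Phosphorylation detected by TR-FRET (streptavidin-XL665, Tb-cryptate anti-phosphotyrosine) as the 665/620 nm emission ratio.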

In another assay the target is CSNK1D (Homo sapiens (Human), UniProt P48730). Description: CSNK1D Assay (ADP-Glo, 1 μM ATP). To be noted: median, read-out: CSNK1D IC50 [mol/l] (median). A digest of the protocol: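 Enzyme preincubated with compound 15 min at 22° C in 50 mM HEPES pH 7.5 buffer with 10 mM MgCl2, 1 mM DTT; kinase reaction run at 1 μM ATP with biotinylated peptide substrate. ADP formed was detected by ADP-Glo luminescence as the measure of activity.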
A general note: In ADP-Glo the light output rises with the ADP produced.

The next assay has as its target CSNK1A1 (Homo sapiens (Human), UniProt P48729). The assay can be described thus: CSNK1A1 Assay 2 (ADP-Glo, 1 μM ATP). To be noted: median, read-out: CSNK1A1 Assay 2 IC50 [mol/l] (median). A digest of the protocol:
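Enzyme (~0.0375 ng/μL) preincubated 15 min at 22° C with compound in HEPES pH 7.5 buffer, then reacted with 1 μM ATP and biotin-Ahx-KRRRAL-pS-VASLPGL peptide. ADP product measured by ADP-Glo luminescence after 1 h ATP depletion and 1 h detection at 22° C.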

Sequence of wild-type Epidermal Growth Factor Receptor (EGFR) (P00533 669-1210): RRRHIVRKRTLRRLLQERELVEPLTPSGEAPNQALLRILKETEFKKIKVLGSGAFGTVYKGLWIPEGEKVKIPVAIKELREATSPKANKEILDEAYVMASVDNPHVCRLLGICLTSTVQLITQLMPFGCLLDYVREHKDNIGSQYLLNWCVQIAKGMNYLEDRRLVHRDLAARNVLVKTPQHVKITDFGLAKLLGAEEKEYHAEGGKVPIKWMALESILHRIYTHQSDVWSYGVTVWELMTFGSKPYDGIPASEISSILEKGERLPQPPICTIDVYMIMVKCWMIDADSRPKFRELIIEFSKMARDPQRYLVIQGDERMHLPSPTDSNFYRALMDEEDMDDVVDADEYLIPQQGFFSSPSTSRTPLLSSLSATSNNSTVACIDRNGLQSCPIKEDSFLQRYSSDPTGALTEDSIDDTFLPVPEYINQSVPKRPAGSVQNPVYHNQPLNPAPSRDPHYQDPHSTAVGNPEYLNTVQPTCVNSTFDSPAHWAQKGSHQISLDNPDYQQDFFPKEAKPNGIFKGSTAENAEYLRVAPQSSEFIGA
Sequence of CSNK1D (P48730 whole entry): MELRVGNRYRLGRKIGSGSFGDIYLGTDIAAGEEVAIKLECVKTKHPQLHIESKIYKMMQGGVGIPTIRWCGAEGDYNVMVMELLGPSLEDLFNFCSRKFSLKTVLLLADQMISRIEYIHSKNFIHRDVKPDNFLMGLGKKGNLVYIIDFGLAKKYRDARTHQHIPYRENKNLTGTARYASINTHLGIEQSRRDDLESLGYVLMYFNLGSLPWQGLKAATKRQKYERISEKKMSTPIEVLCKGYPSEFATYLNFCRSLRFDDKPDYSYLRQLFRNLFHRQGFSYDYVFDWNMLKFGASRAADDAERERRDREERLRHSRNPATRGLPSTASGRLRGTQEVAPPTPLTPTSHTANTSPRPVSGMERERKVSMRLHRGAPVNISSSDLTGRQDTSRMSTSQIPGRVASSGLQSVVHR
Sequence of CSNK1A1 (P48729 whole entry): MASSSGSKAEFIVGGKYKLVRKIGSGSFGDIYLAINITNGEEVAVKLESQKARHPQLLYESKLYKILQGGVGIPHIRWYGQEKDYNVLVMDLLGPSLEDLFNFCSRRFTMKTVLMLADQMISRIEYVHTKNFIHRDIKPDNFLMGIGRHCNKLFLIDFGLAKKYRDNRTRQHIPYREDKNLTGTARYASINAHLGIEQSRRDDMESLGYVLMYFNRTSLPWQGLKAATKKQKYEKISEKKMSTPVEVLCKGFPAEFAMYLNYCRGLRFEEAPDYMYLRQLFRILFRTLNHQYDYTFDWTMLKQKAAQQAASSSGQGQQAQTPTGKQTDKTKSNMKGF

`Cn1ccc2[nH]c(-c3ccnc(NC(=O)C(CC(F)F)c4ccc(F)cc4)c3)c(-c3cccnc3)c2c1=O` (racemic) [Example 118, 4,4-difluoro-2-(4-fluorophenyl)-N-{4-[5-methyl-4-oxo-3-(pyridin-3-yl)-4,5-dihydro-1H-pyrrolo[3,2-c]pyridin-2-yl]pyridin-2-yl}butanamide]: the values for the IC50 (in assay [1]; at CSNK1D; on CSNK1A1) were > 20000 nM, 12 nM and 8.6 nM, respectively.

As for `CC(C(=O)Nc1cc(-c2[nH]c3ccn(C)c(=O)c3c2-c2ccccc2)ccn1)c1ccc(F)cc1` (single isomer, unassigned) [Example 104, 2-(4-fluorophenyl)-N-[4-(5-methyl-4-oxo-3-phenyl-4,5-dihydro-1H-pyrrolo[3,2-c]pyridin-2-yl)pyridin-2-yl]propanamide], the IC50 in assay [1] was > 20000 nM; on CSNK1D, 5.1 nM; on CSNK1A1 it was 7 nM.

As for `O=C(Nc1cc(-c2[nH]c3c(Cl)cn(C4CC4)c(=O)c3c2-c2ccc(F)cc2)ccn1)C(CC(F)F)c1ccc(F)cc1` (racemic) [Example 161, (2RS)—N-{4-[7-chloro-5-cyclopropyl-3-(4-fluorophenyl)-4-oxo-4,5-dihydro-1H-pyrrolo[3,2-c]pyridin-2-yl]pyridin-2-yl}-4,4-difluoro-2-(4-fluorophenyl)butanamide], the IC50 is > 20000 nM in assay [1], 11 nM at CSNK1D and 20 nM at CSNK1A1.

`CN1CC(C)(C)c2[nH]c(-c3ccnc(NC(=O)C(CC(F)F)c4ccc(F)cc4)c3)c(-c3ccccc3)c2C1=O` (racemic) [Example 150, (rac)-4,4-difluoro-2-(4-fluorophenyl)-N-[4-(5,7,7-trimethyl-4-oxo-3-phenyl-4,5,6,7-tetrahydro-1H-pyrrolo[3,2-c]pyridin-2-yl)pyridin-2-yl]butanamide]: the IC50 in assay [1] is > 20000 nM; at CSNK1D it was 3.8 nM; on CSNK1A1, 4.1 nM.

`Cc1cn(C)c(=O)c2c(-c3ccc(F)cc3)c(-c3ccnc(NC(=O)C(CC(F)F)c4ccc(F)cc4)c3)[nH]c12` (single isomer, unassigned; (+)) [Example 36, (+)-4,4-difluoro-2-(4-fluorophenyl)-N-{4-[3-(4-fluorophenyl)-5,7-dimethyl-4-oxo-4,5-dihydro-1H-pyrrolo[3,2-c]pyridin-2-yl]pyridin-2-yl}butanamide]: the IC50 on CSNK1D and on CSNK1A1 was 3.5 nM each time.

As for `CC(C(=O)Nc1cc(-c2[nH]c3c(c2-c2ccccc2)C(=O)N(C)C2(CCC2)C3)ccn1)c1ccc(F)cc1` (single isomer, unassigned; (-)) [Example 53, (−)-2-(4-fluorophenyl)-N-[4-(5′-methyl-4′-oxo-3′-phenyl-1′,4′,5′,7′-tetrahydrospiro[cyclobutane-1,6′-pyrrolo[3,2-c]pyridin]-2′-yl)pyridin-2-yl]propanamide], the IC50 at CSNK1D turned out to be 16 nM; at CSNK1A1, 21 nM.

`Cc1cn(C)c(=O)c2c(-c3ccc(F)cc3)c(-c3ccnc(NC(=O)C(C)c4ccc(F)cc4)c3)[nH]c12` (racemic) [Example 30, 2-(4-fluorophenyl)-N-{4-[3-(4-fluorophenyl)-5,7-dimethyl-4-oxo-4,5-dihydro-1H-pyrrolo[3,2-c]pyridin-2-yl]pyridin-2-yl}propanamide]: the IC50 on CSNK1D worked out at 3.8 nM; on CSNK1A1 it was 5.7 nM.

As for `Cn1cc(CC(F)(F)F)c2[nH]c(-c3ccnc(NC(=O)C(CC(F)F)c4ccc(F)cc4)c3)c(-c3ccccc3)c2c1=O` (single isomer, unassigned; (+)) [Example 20, (+)-4,4-difluoro-2-(4-fluorophenyl)-N-{4-[5-methyl-4-oxo-3-phenyl-7-(2,2,2-trifluoroethyl)-4,5-dihydro-1H-pyrrolo[3,2-c]pyridin-2-yl]pyridin-2-yl}butanamide], the IC50 was 12 nM on CSNK1D and 14 nM on CSNK1A1.

Regarding `Cn1cc(CC(F)(F)F)c2[nH]c(-c3ccnc(NC(=O)C(CC(F)F)c4ccc(F)cc4)c3)c(-c3ccccc3)c2c1=O` (racemic) [Example 18, 4,4-difluoro-2-(4-fluorophenyl)-N-{4-[5-methyl-4-oxo-3-phenyl-7-(2,2,2-trifluoroethyl)-4,5-dihydro-1H-pyrrolo[3,2-c]pyridin-2-yl]pyridin-2-yl}butanamide], the IC50 on CSNK1D worked out at 3.1 nM; on CSNK1A1 it was 5.9 nM.

On to `CC1(C)CNC(=O)c2c1[nH]c(-c1ccnc(NC(=O)C(CC(F)F)c3ccc(F)cc3)c1)c2-c1ccccc1` (single isomer, unassigned) [Example 44, N-[4-(7,7-dimethyl-4-oxo-3-phenyl-4,5,6,7-tetrahydro-1H-pyrrolo[3,2-c]pyridin-2-yl)pyridin-2-yl]-4,4-difluoro-2-(4-fluorophenyl)butanamide], for which the IC50 at CSNK1D was 12 nM; at CSNK1A1 it was 11 nM.

As for `CC(C(=O)Nc1cc(-c2[nH]c3c(c2-c2ccccc2)C(=O)N(C)C2(CCC2)C3)ccn1)c1ccc(F)cc1` (racemic) [Example 52, 2-(4-fluorophenyl)-N-[4-(5′-methyl-4′-oxo-3′-phenyl-1′,4′,5′,7′-tetrahydrospiro[cyclobutane-1,6′-pyrrolo[3,2-c]pyridin]-2′-yl)pyridin-2-yl]propanamide], the values for the IC50 on CSNK1D and on CSNK1A1 were 3.8 nM and 3.4 nM, respectively.

Turning to `Cn1cc(CC2CC2)c2[nH]c(-c3ccnc(NC(=O)C(CC(F)F)c4ccc(F)cc4)c3)c(-c3ccccc3)c2c1=O` (racemic) [Example 60, N-{4-[7-(cyclopropylmethyl)-5-methyl-4-oxo-3-phenyl-4,5-dihydro-1H-pyrrolo[3,2-c]pyridin-2-yl]pyridin-2-yl}-4,4-difluoro-2-(4-fluorophenyl)butanamide], the IC50 came out at 9.5 nM at CSNK1D and 15 nM at CSNK1A1.

With `Cn1cc(CC(F)(F)F)c2[nH]c(-c3ccnc(NC(=O)C(CC(F)F)c4ccc(F)cc4)c3)c(-c3ccc(F)cc3)c2c1=O` (single isomer, unassigned) [Example 27, 4,4-difluoro-2-(4-fluorophenyl)-N-{4-[3-(4-fluorophenyl)-5-methyl-4-oxo-7-(2,2,2-trifluoroethyl)-4,5-dihydro-1H-pyrrolo[3,2-c]pyridin-2-yl]pyridin-2-yl}butanamide], the IC50 on CSNK1D is 5.8 nM; at CSNK1A1, 12 nM.

For the compound `CC(C(=O)Nc1cc(-c2[nH]c3c(CC(F)(F)F)cn(C)c(=O)c3c2-c2ccccc2)ccn1)c1ccc(F)cc1` (single isomer, unassigned; (+)) [Example 15, (+)-2-(4-fluorophenyl)-N-{4-[5-methyl-4-oxo-3-phenyl-7-(2,2,2-trifluoroethyl)-4,5-dihydro-1H-pyrrolo[3,2-c]pyridin-2-yl]pyridin-2-yl}propanamide], the IC50 on CSNK1D is 2.8 nM; on CSNK1A1 it was 2.3 nM.

As to `Cc1cn(C)c(=O)c2c(-c3ccc(F)cc3)c(-c3ccnc(NC(=O)C(CC(F)F)c4ccc(F)cc4)c3)[nH]c12` (single isomer, unassigned; (-)) [Example 35, (−)-4,4-difluoro-2-(4-fluorophenyl)-N-{4-[3-(4-fluorophenyl)-5,7-dimethyl-4-oxo-4,5-dihydro-1H-pyrrolo[3,2-c]pyridin-2-yl]pyridin-2-yl}butanamide], the IC50 on CSNK1D was found to be 22 nM; at CSNK1A1, 66 nM.

With `CN1CC(CC2CC2)c2[nH]c(-c3ccnc(NC(=O)Cc4ccc(F)cc4)c3)c(-c3ccc(F)cc3)c2C1=O` (racemic) [Example 61, N-{4-[7-(cyclopropylmethyl)-3-(4-fluorophenyl)-5-methyl-4-oxo-4,5,6,7-tetrahydro-1H-pyrrolo[3,2-c]pyridin-2-yl]pyridin-2-yl}-2-(4-fluorophenyl)acetamide], the IC50 at CSNK1D is 1.8 nM; at CSNK1A1, 2 nM.

`CN1CCc2[nH]c(-c3ccnc(NC(=O)C(CC(F)F)c4ccc(F)cc4)c3)c(-c3ccccc3)c2C1=O` (single isomer, unassigned) [Example 4, 4,4-difluoro-2-(4-fluorophenyl)-N-[4-(5-methyl-4-oxo-3-phenyl-4,5,6,7-tetrahydro-1H-pyrrolo[3,2-c]pyridin-2-yl)pyridin-2-yl]butanamide]: the IC50 at CSNK1D was found to be 2.3 nM; on CSNK1A1, 1.1 nM.

Turning to `CC1CN(C)C(=O)c2c1[nH]c(-c1ccnc(NC(=O)C(CC(F)F)c3ccc(F)cc3)c1)c2-c1ccccc1` (stereo not drawn) [Example 39, N-{4-[5,7-dimethyl-4-oxo-3-phenyl-4,5,6,7-tetrahydro-1H-pyrrolo[3,2-c]pyridin-2-yl]pyridin-2-yl}-4,4-difluoro-2-(4-fluorophenyl)butanamide], the results for the IC50 on CSNK1D and at CSNK1A1 were 3.7 nM and 3 nM, respectively.

As for `Cc1cn(C)c(=O)c2c(-c3ccccc3)c(-c3ccnc(NC(=O)C(C)c4ccc(F)cc4)c3)[nH]c12` (racemic) [Example 38, N-[4-(5,7-dimethyl-4-oxo-3-phenyl-4,5-dihydro-1H-pyrrolo[3,2-c]pyridin-2-yl)pyridin-2-yl]-2-(4-fluorophenyl)propanamide], the IC50 on CSNK1D amounted to 7.1 nM; on CSNK1A1, 7.8 nM.
